{
  "source": "patent US11246965B2",
  "about": "“Compositions and methods for reducing neointima formation” (University of Georgia Research Foundation, Inc., priority 2013, dated 2022)",
  "key": {"Endothelial cell C166": {"system": "Endothelial cell C166", "assay": "EC proliferation (MTT cell proliferation assay)", "assay_type": "cell-based", "description": "Endothelial cell C166 was purchased from ATCC and grown at 37° C. in a humidified atmosphere of 5% CO2 in DMEM (Invitrogen) supplemented with 10% FBS.\n(§1) Cell proliferation was evaluated with 3-(4,5-dimethylthiazol-2-yl)-2,5-diphenyltetrazolium (MTT) assay using a TACS MTT Cell Proliferation Assay Kit (Trivegen). The optical density at 570 nm was measured."}, "[1]": {"system": "Rat aortic smooth muscle cells (SMCs)", "assay": "SMC proliferation (MTT cell proliferation assay)", "assay_type": "cell-based", "description": "Rat aortic smooth muscle cells (SMCs) were cultured by enzyme-digestion method from rat thoracic aorta as described previously (Hofer, et al., Proc Natl Acad Sci USA., 98:6412-6416 (2001), Marquez, et al., Biochem Pharmacol., 41:1821-1829 (1991), (Berg, et al., Eur. J. Biochem., 216:161-167 (1993)). SMC phenotype of the cultured cells was confirmed by the expression of smooth muscle alpha-actin and SM22-alpha.\nas §1"}, "CTP synthetase": {"system": "CTP synthetase", "settings": "cited from earlier work; for CTPS activity: literature"}, "[2]": {"system": "Rat aortic smooth muscle cells (SMCs)", "assay": "In vitro SMC apoptosis, PI/Annexin V flow cytometry", "assay_type": "cell-based", "settings": "24 h treatment with 500 nM", "description": "(§2) In vivo cell apoptosis was evaluated by detecting DNA fragmentation using the terminal deoxynucleotidyl transferase (TdT)-mediated dUTP-digoxigenin nick end-labeling method (TUNEL kit, Roche, USA). Apoptotic cells were observed under a fluorescent microscope. In vitro cell apoptosis was measured by Flow Cytometry. Cells were stained with both Annexin V-FITC (BD Biosciences) and propidium iodide (PI) and analyzed on a FACSCALIBUR™ (Becton Dickinson). The percentages of positive-stained cells were quantified using […]™ software (Becton Dickinson). Non-stained cells served as controls."}, "[3]": {"system": "balloon-injured rat carotid arteries", "assay": "Re-endothelialization in rat carotid artery balloon injury model (CD31, Evans blue)", "assay_type": "in vivo", "settings": "1 mg/kg CPEC, day 14", "description": "Rat carotid artery balloon injury was performed using 2F Fogarty arterial embolectomy balloon catheter (Baxter Edwards Healthcare) as described previously (Tulis, Methods Mol. Med., 139:1-30 (2007)). 7, 14 or 60 days later, the balloon-injured arteries were perfused with saline, fixed with 4% paraformaldehyde, embedded in paraffin, and sectioned. Subsequent morphometric analyses were performed in a double-blinded manner. Ten sections that were evenly distributed in the vessel segments were collected for analysis. The sections were stained with modified hematoxylin and eosin or elastica van Gieson (VG) staining. Cross-sectional images were captured with a Nikon microscope (Nikon America Inc). The circumference of the lumen, internal elastic lamina, and external elastic lamina were measured using Image-pro Plus Software. For immunohistochemistry (IHC) staining, sections were rehydrated, blocked with 5% goat serum, permeabilized with 0.01% Triton X-100 in PBS, and incubated with primary antibodies at 4° C. overnight followed by incubation with horseradish peroxidase-conjugated secondary antibody. The sections were counterstained with hematoxylin.\nTo determine if CTPS1 plays a role in re-endothelialization during vascular remodeling in vivo, CPEC was administered systematically via osmotic pump into rats with balloon-injury or mice with wire-injury in their carotid arteries. […]"}, "neointima SMCs": {"system": "neointima SMCs", "assay": "In vivo cell apoptosis by TUNEL assay in injured arteries", "design": "species or system rat", "settings": "2 mg/kg b.w./day", "description": "as §2\nTo confirm the specificity of CTPS1 function, CTPS1 was knockdown using adenoviral-mediated shRNA delivery in injured arteries."}, "[4]": {"system": "wire-injured mouse carotid artery", "assay": "Mouse carotid artery wire injury model, re-endothelialization (Evans Blue)", "assay_type": "in vivo", "settings": "10 mg/kg/day, in the presence of CPEC", "description": "Mice were anesthetized with ketamine hydrochloride (80 mg/kg IP) and xylazine (5 mg/kg IP), a 0.38-mm flexible angioplasty guidewire was advanced by 1 cm via a transverse arteriotomy of the external carotid artery, and endothelial denudation of the common carotid artery was achieved by 3 rotational passes (Werner, et al., Circ. Res., 93:e17-e24 (2003)).\nTo further establish CTPS function in re-endothelialization after vascular injury, the endothelial denudation and re-endothelialization was tested in a different model, i.e., mouse wire-injury model. […] Systematic administration of CPEC was achieved via osmotic pump (1 mg/kg/day). Re-endothelialization in mouse arteries occurred rapidly following injury (FIG. 6B). 5 days after injury, re-endothelialization was completed, consistent with the previous reports (Hagensen, et al., Cardiovasc Res., 93:223-231 (2012))."}, "[5]": {"settings": "abundant (10 μM) cytidine alone (FIG. 6D)"}},
  "data": [
    {"compound": "CC(=O)O[C@H]1C(=O)[C@@]2(C)[C@H]([C@H](OC(=O)c3ccccc3)[C@]3(O)C[C@H](OC(=O)[C@H](O)[C@@H](NC(=O)c4ccccc4)c4ccccc4)C(C)=C1C3(C)C)[C@]1(OC(C)=O)CO[C@@H]1C[C@@H]2O", "note": "[paclitaxel, Paclitaxel]", "values": [
      {"measurement": "EC proliferation", "setting": "Endothelial cell C166; 20 nmol/L or 500 nmol/L", "value": "suppressed"},
      {"measurement": "restoration of inhibitory effect on EC and SMC proliferation by cytidine", "setting": "Endothelial cell C166; 500 nM paclitaxel with 10 μM cytidine", "value": "could not be restored by cytidine"},
      {"measurement": "relative sensitivity of SMCs and ECs (proliferation)", "setting": "Endothelial cell C166; ECs compared with SMCs", "value": "ECs seemed to be more sensitive to paclitaxel than SMCs"},
      {"measurement": "SMC proliferation", "setting": "[1]; 20 nmol/L or 500 nmol/L", "value": "suppressed"}
    ]},
    {"compound": "N[C@H](C(=O)O)[C@@H]1CC(Br)=NO1", "note": "[3-bromoacivicin]", "values": [
      {"measurement": "CTP synthetase inhibitor potency relative to 3-chloro analog (acivicin)", "setting": "CTP synthetase; Conti, et al, ChemMedChem (2011)", "value": "three times as potent"}
    ]},
    {"compound": "Nc1ccn([C@@H]2C=C(CO)[C@@H](O)[C@H]2O)c(=O)n1", "note": "[CPEC, cyclopentenyl cytosine]", "values": [
      {"measurement": "SMC apoptosis", "setting": "[2]", "value": "did not induce SMC apoptosis"},
      {"measurement": "re-endothelialization area of the injured vessels (Evans blue)", "setting": "[3]", "value": 66, "unit": "%"},
      {"measurement": "in vivo cell apoptosis (TUNEL)", "setting": "neointima SMCs", "value": "no apoptotic cells were observed"}
    ]},
    {"compound": "Nc1ccn([C@@H]2O[C@H](CO)[C@@H](O)[C@H]2O)c(=O)n1", "note": "[cytidine]", "values": [
      {"measurement": "restoration of EC proliferation blocked by high dosage of CPEC", "setting": "Endothelial cell C166; 500 nM CPEC + 10 μM cytidine", "value": "restored EC"},
      {"measurement": "restoration of SMC proliferation blocked by high dosage of CPEC", "setting": "[1]; 500 nM CPEC + 10 μM cytidine", "value": "not SMC"}
    ]},
    {"compound": "carbodine", "values": [
      {"measurement": "CTPS activity", "setting": "CTP synthetase", "value": "effectively block CTPS activity"}
    ]},
    {"compound": "O=c1oc2c(O)c(O)cc3c(=O)oc4c(O)c(O)cc1c4c23", "note": "[EA, ellagic acid]", "values": [
      {"measurement": "cytidine-restored EC proliferation", "setting": "Endothelial cell C166; CPEC + cytidine", "value": "blocked cytidine-restored EC proliferation in a dose-dependent manner"},
      {"measurement": "re-endothelialization", "setting": "[4]", "value": "dramatically impaired"}
    ]},
    {"compound": "[N-]=[N+]=CC(=O)CC[C@H](N)C(=O)O", "note": "[6-diazo-5-oxonorleucine, 6-diazo-5-oxo-L-norleucin]", "values": [
      {"measurement": "CTPS activity", "setting": "CTP synthetase", "value": "effectively block CTPS activity"}
    ]},
    {"compound": "Nc1ccn([C@@H]2O[C@H](COP(=O)(O)OP(=O)(O)OP(=O)(O)O)[C@@H](O)[C@H]2O)c(=O)n1", "note": "[CTP]", "values": [
      {"measurement": "EC proliferation", "setting": "Endothelial cell C166; [5]", "value": "not to be able to stimulate"},
      {"measurement": "SMC proliferation", "setting": "[1]; [5]", "value": "not to be able to stimulate"}
    ]}
  ]
}
